Experimental data taken from patent publication US9169254B2, “Spiroimidazolone derivative” (Chugai Seiyaku Kabushiki Kaisha, priority 2009, dated 2015).

Target: T1, human PTH1 receptor (Homo sapiens, UniProt Q03431)
T1 sequence (Q03431 27-593): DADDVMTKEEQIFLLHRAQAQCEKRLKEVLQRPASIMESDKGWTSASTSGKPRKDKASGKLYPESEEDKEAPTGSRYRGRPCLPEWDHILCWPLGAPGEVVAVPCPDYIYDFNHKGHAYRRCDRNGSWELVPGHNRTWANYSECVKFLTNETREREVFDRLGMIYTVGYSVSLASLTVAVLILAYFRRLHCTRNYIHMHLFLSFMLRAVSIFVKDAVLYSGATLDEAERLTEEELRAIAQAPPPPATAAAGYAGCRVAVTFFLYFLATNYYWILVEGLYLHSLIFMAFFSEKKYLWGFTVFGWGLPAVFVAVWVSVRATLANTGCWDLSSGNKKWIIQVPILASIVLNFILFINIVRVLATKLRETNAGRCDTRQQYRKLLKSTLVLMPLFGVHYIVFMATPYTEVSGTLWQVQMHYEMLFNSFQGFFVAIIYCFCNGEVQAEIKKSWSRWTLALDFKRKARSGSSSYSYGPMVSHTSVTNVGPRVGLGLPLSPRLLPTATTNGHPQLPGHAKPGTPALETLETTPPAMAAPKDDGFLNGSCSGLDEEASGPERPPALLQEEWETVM
Assay: In vitro cAMP signal activity in HKRK-B7 cells (LLC-PK1 cells overexpressing the human PTH1 receptor)
Format: cell-based
Details: HKRK-B7 cells, compound at 1×10^−3 M

[1] = cAMP produced as percentage of that produced by hPTH(1-34) at 100 nM

| Compound | cAMP production activity (%) [1] [%] | cAMP production activity (%) ([…], 0.1 µM) |
| --- | --- | --- |
| Cc1cc(C(=O)N2CCC(C)(O)CC2)cc(C)c1/C=C/S(=O)(=O)N1CCC2(CC1)N=C(c1cccc(OC(F)(F)C(F)F)c1)NC2=O [Compound 1100, 8-{(E)-2-[4-(4-Hydroxy-4-methyl-piperidine-1-carbonyl)-2,6-dimethyl-phenyl]-ethenesulfonyl}-2-[3-(1,1,2,2-tetrafluoro-ethoxy)-phenyl]-1,3,8-triaza-spiro[4.5]dec-1-en-4-one] | 76 | – |
| O=C1NC(C2CCCCC2)=NC12CCN(S(=O)(=O)CCc1ccc3c(ccn3CCOCCO)c1)CC2 [Compound 838, 2-cyclohexyl-8-(2-{1-[2-(2-hydroxy-ethoxy)-ethyl]-1H-indol-5-yl}-ethanesulfonyl)-1,3,8-triaza-spiro[4.5]dec-1-en-4-one] | 75 | – |
| Cc1cc(N(CCO)C(=O)N(C)CCO)cc(C)c1/C=C/S(=O)(=O)N1CCC2(CC1)N=C(c1cccc(OC(F)(F)F)c1)NC2=O [Compound 533, 1-(3,5-dimethyl-4-{(E)-2-[4-oxo-2-(3-trifluoromethoxy-phenyl)-1,3,8-triaza-spiro[4.5]dec-1-ene-8-sulfonyl]-vinyl}-phenyl)-1,3-bis-(2-hydroxy-ethyl)-3-methyl-urea] | 69 | – |
| Cc1cc(N(C)C(N)=O)cc(C)c1/C=C/S(=O)(=O)N1CCC2(CC1)N=C(CCCCCCCCC1(C)COC1)NC2=O [Compound 1023, 1-[3,5-Dimethyl-4-((E)-2-{2-[8-(3-methyl-oxetan-3-yl)-octyl]-4-oxo-1,3,8-triaza-spiro[4.5]dec-1-ene-8-sulfonyl}-vinyl)-phenyl]-1-methyl-urea] | 92 | – |
| Cc1cc(NC[C@H](O)CO)ccc1CCS(=O)(=O)N1CCC2(CC1)N=C(C1CCCCC1)NC2=O [Compound 321, 2-Cyclohexyl-8-{2-[4-((S)-2,3-dihydroxy-propylamino)-2-methyl-phenyl]-ethanesulfonyl}-1,3,8-triaza-spiro[4.5]dec-1-en-4-one] | 55 | – |
| CN(C)C(=O)n1ccc2cccc(CCS(=O)(=O)N3CCC4(CC3)N=C(C3CCCCC3)NC4=O)c21 [Compound 647, 7-[2-(2-cyclohexyl-4-oxo-1,3,8-triaza-spiro[4.5]dec-1-ene-8-sulfonyl)-ethyl]-indole-1-carboxylic acid dimethylamide] | 104 | – |
| Cc1cc(C(=O)N2CCC(C)(O)CC2)cc(C)c1/C=C/S(=O)(=O)N1CCC2(CC1)N=C(c1ccc(F)c(C(F)(F)F)c1)NC2=O [Compound 642, 2-(4-fluoro-3-trifluoromethyl-phenyl)-8-{(E)-2-[4-(4-hydroxy-4-methyl-piperidine-1-carbonyl)-2,6-dimethyl-phenyl]-ethenesulfonyl}-1,3,8-triaza-spiro[4.5]dec-1-en-4-one] | 87 | – |
| O=C1NC(C2CCCCC2)=NC12CCN(S(=O)(=O)CCCc1cccc(O)c1)CC2 [Compound 317, 2-cyclohexyl-8-[3-(3-hydroxy-phenyl)-propane-1-sulfonyl]-1,3,8-triaza-spiro[4.5]dec-1-en-4-one] | 62 | – |
| CC(=O)Nc1ccc(CCS(=O)(=O)N2CCC3(CC2)N=C([C@H]2CC[C@H](CC=C(F)F)CC2)NC3=O)c(C)c1 [Compound 1067, N-[4-(2-{2-[4-(3,3-difluoro-allyl)-cyclohexyl]-4-oxo-1,3,8-triaza-spiro[4.5]dec-1-ene-8-sulfonyl}-ethyl)-3-methyl-phenyl]-acetamide] | 69 | – |
| [2H]C([2H])([2H])N(C(N)=O)c1cc(C)c(/C=C/S(=O)(=O)N2CCC3(CC2)N=C(c2ccc(F)c(C(F)(F)F)c2)NC3=O)c(C)c1 [Compound 1312, 1-(4-{(E)-2-[2-(4-fluoro-3-trifluoromethyl-phenyl)-4-oxo-1,3,8-triaza-spiro[4.5]dec-1-ene-8-sulfonyl]-vinyl}-3,5-dimethyl-phenyl)-1-[1,1,1-^2H3]methyl-urea] | 105 | – |
| O=C1NC(C2CCC(CF)CC2)=NC12CCN(S(=O)(=O)c1cccc(Cl)c1)CC2 (stereo not shown) [Compound 27, 8-(3-chloro-benzenesulfonyl)-2-(4-fluoromethyl-cyclohexyl)-1,3,8-triaza-spiro[4.5]dec-1-en-4-one] | 42 | – |
| Cc1cc(N(C)C(N)=O)cc(C)c1/C=C/S(=O)(=O)N1CCC2(CC1)N=C(CCCCCCCCCCCO)NC2=O [Compound 1307, 1-(4-{(E)-2-[2-(11-hydroxy-undecyl)-4-oxo-1,3,8-triaza-spiro[4.5]dec-1-ene-8-sulfonyl]-vinyl}-3,5-dimethyl-phenyl)-1-methyl-urea] | 116 | – |
| O=C1NC(CCc2ccccc2)=NC12CCN(S(=O)(=O)c1cccc(Cl)c1)CC2 [Compound 29, 8-(3-chloro-benzenesulfonyl)-2-phenethyl-1,3,8-triaza-spiro[4.5]dec-1-en-4-one] | 28 | – |
| Cc1cc(N(C)C(N)=O)cc(C)c1CCS(=O)(=O)N1CCC2(CC1)N=C(CCCCCCCC(F)(F)C(F)(F)F)NC2=O [Compound 1302, 1-(3,5-dimethyl-4-{2-[4-oxo-2-(8,8,9,9,9-pentafluoro-nonyl)-1,3,8-triaza-spiro[4.5]dec-1-ene-8-sulfonyl]-ethyl}-phenyl)-1-methyl-urea] | 95 | – |
| Cc1cc(C(=O)N2CCC(O)(CF)CC2)cc(C)c1/C=C/S(=O)(=O)N1CCC2(CC1)N=C(c1cccc(C(F)(F)C(F)(F)F)c1)NC2=O [Compound 1243, 8-{(E)-2-[4-(4-fluoromethyl-4-hydroxy-piperidine-1-carbonyl)-2,6-dimethyl-phenyl]-ethenesulfonyl}-2-(3-pentafluoroethyl-phenyl)-1,3,8-triaza-spiro[4.5]dec-1-en-4-one] | 77 | – |
| Cc1cc(CN2C(=O)CNC2=O)cc(C)c1CCS(=O)(=O)N1CCC2(CC1)N=C(C1CCC(CCC(F)(F)F)CC1)NC2=O (stereo not shown) [Compound 774, 3-[3,5-dimethyl-4-(2-{4-oxo-2-[4-(3,3,3-trifluoro-propyl)-cyclohexyl]-1,3,8-triaza-spiro[4.5]dec-1-ene-8-sulfonyl}-ethyl)-benzyl]-imidazolidine-2,4-dione] | 80 | – |
| COCCN(C(C)=O)c1ccc(/C=C/S(=O)(=O)N2CCC3(CC2)N=C(C2CCC(CCC(F)(F)F)CC2)NC3=O)c(C)c1 (stereo not shown) [Compound 542, N-(2-methoxy-ethyl)-N-[3-methyl-4-((E)-2-{4-oxo-2-[4-(3,3,3-trifluoro-propyl)-cyclohexyl]-1,3,8-triaza-spiro[4.5]dec-1-ene-8-sulfonyl}-vinyl)-phenyl]-acetamide] | 66 | – |
| COC(=O)N(C)c1ccc(CCS(=O)(=O)N2CCC3(CC2)N=C(c2cccc(OC(F)(F)F)c2)NC3=O)c(C)c1 [Compound 468, Methyl-(3-methyl-4-{2-[4-oxo-2-(3-trifluoromethoxy-phenyl)-1,3,8-triaza-spiro[4.5]dec-1-ene-8-sulfonyl]-ethyl}-phenyl)-carbamic acid methyl ester] | – | 90 |
| Cc1cc(C(=O)N(C)C)ccc1CCS(=O)(=O)N1CCC2(CC1)N=C(c1cccc(OC(F)(F)F)c1)NC2=O [Compound 99, 3,N,N-trimethyl-4-{2-[4-oxo-2-(3-trifluoromethoxy-phenyl)-1,3,8-triaza-spiro[4.5]dec-1-ene-8-sulfonyl]-ethyl}-benzamide] | 80 | – |
